Data from patent US20230201217A1 (priority 2019, published 2023).

Key:
cynomolgus monkeys = test: 14-day nasogastric gavage GLP toxicity study in cynomolgus monkeys; assay type: in vivo, cynomolgus monkey
Text: Assessments of neurobehavioral effects and general toxicity were based on mortality, functional observational battery (FOB) evaluations, clinical observations, body weight, and body temperature; ophthalmoscopic, electrocardiographic examinations; and anatomic and clinical pathology. The anatomical pathology evaluations included histopathology of a full list of tissues from all animals and a comprehensive evaluation of the central nervous system (including selected peripheral nerves) utilizing whole body perfusion and special stains. Bone marrow smears from all animals were evaluated microscopically. Complete differentials and myeloid-erythroid (ME) ratios were performed. Toxicokinetic assessment was conducted for the test article and metabolites.

[1] = test system: polychromatic erythrocytes in mouse bone marrow; test: Mouse bone marrow in vivo micronucleus assay
Procedure: Treatment resulted and clinical signs of lethargy and piloerection at doses of 200-400 mg/kg and in mortality of male and female ICR mice at doses of 300 and 400 mg/kg. The highest non-lethal dose was 250 mg/kg.
These doses were based upon prior toxicology data indicating higher doses were associated with mortality in this species. […] A positive control group received a single oral dose of 60 mg/kg cyclophosphamide on Day 2, the day prior to the scheduled euthanasia. Each group consisted of 6 males. Males only were used as no significant differences in response related to gender were expected based upon prior toxicology and toxicokinetic data. All animals were euthanized on Day 3, the day following the final dose and discarded following bone marrow collection.
All animals were observed twice daily for mortality and moribundity. Bone marrow collection for micronucleus evaluation was performed for 5 of the 6 animals in each group at the scheduled euthanasia (Day 3). All animals were discarded without necropsy. Bone marrow smears were prepared, and the coded slides were counted for polychromatic, normochromatic, and micronucleated polychromatic erythrocytes following the final bone marrow sample collection on Day 3.

CYP2C9 = CYP2C9 (Homo sapiens, UniProt P11712); conditions: recombinant enzyme
Chain of CYP2C9 (P11712 whole entry): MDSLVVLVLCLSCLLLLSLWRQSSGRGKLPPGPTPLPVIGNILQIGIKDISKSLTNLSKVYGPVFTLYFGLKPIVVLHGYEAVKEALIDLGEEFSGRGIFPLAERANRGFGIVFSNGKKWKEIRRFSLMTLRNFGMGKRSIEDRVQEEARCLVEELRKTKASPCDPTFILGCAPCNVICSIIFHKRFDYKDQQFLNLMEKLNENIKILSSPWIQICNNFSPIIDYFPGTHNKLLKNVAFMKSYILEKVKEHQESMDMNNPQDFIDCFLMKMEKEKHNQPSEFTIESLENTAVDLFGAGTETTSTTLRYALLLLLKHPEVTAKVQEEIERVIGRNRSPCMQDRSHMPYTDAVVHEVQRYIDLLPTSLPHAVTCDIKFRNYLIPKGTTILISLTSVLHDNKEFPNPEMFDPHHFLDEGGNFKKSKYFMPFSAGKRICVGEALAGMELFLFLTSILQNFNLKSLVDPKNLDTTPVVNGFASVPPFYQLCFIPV
Procedure: (§1) Control incubations were performed for each assay with appropriate positive inhibitory controls.

CYP2C19 = CYP2C19 (Homo sapiens, UniProt P33261); conditions: recombinant enzyme
Chain of CYP2C19 (P33261 whole entry): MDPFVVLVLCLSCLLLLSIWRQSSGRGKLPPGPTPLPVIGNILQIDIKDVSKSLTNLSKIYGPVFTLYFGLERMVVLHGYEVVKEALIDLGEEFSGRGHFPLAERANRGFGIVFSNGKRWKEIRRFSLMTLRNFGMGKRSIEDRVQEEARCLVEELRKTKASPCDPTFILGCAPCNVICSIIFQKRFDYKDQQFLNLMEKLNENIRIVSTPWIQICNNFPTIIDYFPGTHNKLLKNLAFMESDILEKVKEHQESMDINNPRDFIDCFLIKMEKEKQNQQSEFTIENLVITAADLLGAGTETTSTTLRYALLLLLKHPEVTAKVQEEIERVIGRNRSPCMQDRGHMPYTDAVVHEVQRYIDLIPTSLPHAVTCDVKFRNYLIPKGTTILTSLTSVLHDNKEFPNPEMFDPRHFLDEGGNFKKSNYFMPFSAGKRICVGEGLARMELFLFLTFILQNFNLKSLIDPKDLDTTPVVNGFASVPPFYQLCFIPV
Procedure: as §1

[2] = test system: animal substance use models; conditions: i.p.; cited from earlier work
[3] = 400/300 mg/kg/day F, 3 examined
[4] = 400/300 mg/kg/day M, 4 examined

COCCC1CC2CN3CCc4c([nH]c5ccccc45)C(C(=O)OC)(C2)C13.Cl (centres unmarked) [18-MC HCl, 18-Methoxycoronaridine hydrochloride]
Bone marrow, rib: Depletion, mixed; number with observation (cynomolgus monkeys; 150 mg/kg/day F): 0 | Bone marrow, sternum: Depletion, mixed, mild; number with observation (cynomolgus monkeys; 150 mg/kg/day F): 0 | Bone marrow, sternum: Depletion, mixed, minimal; number with observation (cynomolgus monkeys; 150 mg/kg/day F): 0 | Bone marrow, sternum: Depletion, mixed, moderate; number with observation (cynomolgus monkeys; 150 mg/kg/day F): 0 | Bone marrow, sternum: Depletion, mixed; number with observation (cynomolgus monkeys; 150 mg/kg/day F): 0 | Liver: Hypertrophy, hepatocellular, panlobular, mild; number with observation (cynomolgus monkeys; 150 mg/kg/day F): 2 | Liver: Hypertrophy, hepatocellular, panlobular, minimal; number with observation (cynomolgus monkeys; 150 mg/kg/day F): 1 | Thymus: Depletion lymphoid, generalized, mild; number with observation (cynomolgus monkeys; 150 mg/kg/day F): 0 | Thymus: Depletion lymphoid, generalized, moderate; number with observation (cynomolgus monkeys; 150 mg/kg/day F): 0 | Thymus: Depletion lymphoid, generalized; number with observation (cynomolgus monkeys; 150 mg/kg/day F): 0 | Thymus: Depletion, lymphoid, cortex, mild; number with observation (cynomolgus monkeys; 150 mg/kg/day F): 2 | Thymus: Depletion, lymphoid, cortex, minimal; number with observation (cynomolgus monkeys; 150 mg/kg/day F): 0 | Thymus: Depletion, lymphoid, cortex, moderate; number with observation (cynomolgus monkeys; 150 mg/kg/day F): 1 | mean cumulative body gain (Days 1-14) (cynomolgus monkeys; 150 mg/kg/day F): -0.12 kg | Bone marrow, femur: Depletion, mixed; number with observation (cynomolgus monkeys; 150 mg/kg/day F, 3 examined): 0 | Liver: Hypertrophy, hepatocellular, panlobular; number with observation (cynomolgus monkeys; 150 mg/kg/day F, 3 examined): 3 | Thymus: Depletion, lymphoid, cortex; number with observation (cynomolgus monkeys; 150 mg/kg/day F, 3 examined): 3 | Bone marrow, femur: Depletion, mixed, mild; number with observation (cynomolgus monkeys; 150 mg/kg/day M): 0 | Bone marrow, femur: Depletion, mixed, minimal; number with observation (cynomolgus monkeys; 150 mg/kg/day M): 1 | Bone marrow, femur: Depletion, mixed, moderate; number with observation (cynomolgus monkeys; 150 mg/kg/day M): 0 | Bone marrow, rib: Depletion, mixed, mild; number with observation (cynomolgus monkeys; 150 mg/kg/day M): 0 | Bone marrow, rib: Depletion, mixed, minimal; number with observation (cynomolgus monkeys; 150 mg/kg/day M): 1 | Bone marrow, rib: Depletion, mixed, moderate; number with observation (cynomolgus monkeys; 150 mg/kg/day M): 0 | Bone marrow, rib: Depletion, mixed; number with observation (cynomolgus monkeys; 150 mg/kg/day M): 1 | Bone marrow, sternum: Depletion, mixed, mild; number with observation (cynomolgus monkeys; 150 mg/kg/day M): 0 | Bone marrow, sternum: Depletion, mixed, minimal; number with observation (cynomolgus monkeys; 150 mg/kg/day M): 1 | Bone marrow, sternum: Depletion, mixed, moderate; number with observation (cynomolgus monkeys; 150 mg/kg/day M): 0 | Bone marrow, sternum: Depletion, mixed; number with observation (cynomolgus monkeys; 150 mg/kg/day M): 1 | Liver: Hypertrophy, hepatocellular, panlobular, mild; number with observation (cynomolgus monkeys; 150 mg/kg/day M): 3 | Liver: Hypertrophy, hepatocellular, panlobular, minimal; number with observation (cynomolgus monkeys; 150 mg/kg/day M): 0 | Thymus: Depletion lymphoid, generalized, mild; number with observation (cynomolgus monkeys; 150 mg/kg/day M): 0 | Thymus: Depletion lymphoid, generalized, moderate; number with observation (cynomolgus monkeys; 150 mg/kg/day M): 0 | Thymus: Depletion lymphoid, generalized; number with observation (cynomolgus monkeys; 150 mg/kg/day M): 0 | Thymus: Depletion, lymphoid, cortex, mild; number with observation (cynomolgus monkeys; 150 mg/kg/day M): 2 | Thymus: Depletion, lymphoid, cortex, minimal; number with observation (cynomolgus monkeys; 150 mg/kg/day M): 1 | Thymus: Depletion, lymphoid, cortex, moderate; number with observation (cynomolgus monkeys; 150 mg/kg/day M): 0 | mean cumulative body gain (Days 1-14) (cynomolgus monkeys; 150 mg/kg/day M): -0.28 kg | Bone marrow, femur: Depletion, mixed; number with observation (cynomolgus monkeys; 150 mg/kg/day M, 3 examined): 1 | Liver: Hypertrophy, hepatocellular, panlobular; number with observation (cynomolgus monkeys; 150 mg/kg/day M, 3 examined): 3 | Thymus: Depletion, lymphoid, cortex; number with observation (cynomolgus monkeys; 150 mg/kg/day M, 3 examined): 3 | mortality (cynomolgus monkeys; 400 mg/kg, first day of dosing): one male died | Bone marrow, femur: Depletion, mixed, mild; number with observation (cynomolgus monkeys; 400/300 mg/kg/day F): 0 | Bone marrow, femur: Depletion, mixed, minimal; number with observation (cynomolgus monkeys; 400/300 mg/kg/day F): 1 | Bone marrow, femur: Depletion, mixed, moderate; number with observation (cynomolgus monkeys; 400/300 mg/kg/day F): 0 | Bone marrow, rib: Depletion, mixed, mild; number with observation (cynomolgus monkeys; 400/300 mg/kg/day F): 1 | Bone marrow, rib: Depletion, mixed, minimal; number with observation (cynomolgus monkeys; 400/300 mg/kg/day F): 0 | Bone marrow, rib: Depletion, mixed, moderate; number with observation (cynomolgus monkeys; 400/300 mg/kg/day F): 0 | Bone marrow, rib: Depletion, mixed; number with observation (cynomolgus monkeys; 400/300 mg/kg/day F): 1 | Bone marrow, sternum: Depletion, mixed, mild; number with observation (cynomolgus monkeys; 400/300 mg/kg/day F): 1 | Bone marrow, sternum: Depletion, mixed, minimal; number with observation (cynomolgus monkeys; 400/300 mg/kg/day F): 0 | Bone marrow, sternum: Depletion, mixed, moderate; number with observation (cynomolgus monkeys; 400/300 mg/kg/day F): 0 | Bone marrow, sternum: Depletion, mixed; number with observation (cynomolgus monkeys; 400/300 mg/kg/day F): 1 | Liver: Hypertrophy, hepatocellular, panlobular, mild; number with observation (cynomolgus monkeys; 400/300 mg/kg/day F): 3 | Liver: Hypertrophy, hepatocellular, panlobular, minimal; number with observation (cynomolgus monkeys; 400/300 mg/kg/day F): 0 | Thymus: Depletion lymphoid, generalized, mild; number with observation (cynomolgus monkeys; 400/300 mg/kg/day F): 2 | Thymus: Depletion lymphoid, generalized, moderate; number with observation (cynomolgus monkeys; 400/300 mg/kg/day F): 1 | Thymus: Depletion lymphoid, generalized; number with observation (cynomolgus monkeys; 400/300 mg/kg/day F): 3 | Thymus: Depletion, lymphoid, cortex, mild; number with observation (cynomolgus monkeys; 400/300 mg/kg/day F): 0 | Thymus: Depletion, lymphoid, cortex, minimal; number with observation (cynomolgus monkeys; 400/300 mg/kg/day F): 0 | Thymus: Depletion, lymphoid, cortex, moderate; number with observation (cynomolgus monkeys; 400/300 mg/kg/day F): 0 | mean cumulative body gain (Days 1-14) (cynomolgus monkeys; 400/300 mg/kg/day F): -0.09 kg | Bone marrow, femur: Depletion, mixed; number with observation (cynomolgus monkeys; [3]): 1 | Liver: Hypertrophy, hepatocellular, panlobular; number with observation (cynomolgus monkeys; [3]): 3 | Thymus: Depletion, lymphoid, cortex; number with observation (cynomolgus monkeys; [3]): 0 | Bone marrow, femur: Depletion, mixed, mild; number with observation (cynomolgus monkeys; 400/300 mg/kg/day M): 1 | Bone marrow, femur: Depletion, mixed, minimal; number with observation (cynomolgus monkeys; 400/300 mg/kg/day M): 0 | Bone marrow, femur: Depletion, mixed, moderate; number with observation (cynomolgus monkeys; 400/300 mg/kg/day M): 1 | Bone marrow, rib: Depletion, mixed, mild; number with observation (cynomolgus monkeys; 400/300 mg/kg/day M): 1 | Bone marrow, rib: Depletion, mixed, minimal; number with observation (cynomolgus monkeys; 400/300 mg/kg/day M): 0 | Bone marrow, rib: Depletion, mixed, moderate; number with observation (cynomolgus monkeys; 400/300 mg/kg/day M): 1 | Bone marrow, rib: Depletion, mixed; number with observation (cynomolgus monkeys; 400/300 mg/kg/day M): 2 | Bone marrow, sternum: Depletion, mixed, mild; number with observation (cynomolgus monkeys; 400/300 mg/kg/day M): 1 | Bone marrow, sternum: Depletion, mixed, minimal; number with observation (cynomolgus monkeys; 400/300 mg/kg/day M): 0 | Bone marrow, sternum: Depletion, mixed, moderate; number with observation (cynomolgus monkeys; 400/300 mg/kg/day M): 1 | Bone marrow, sternum: Depletion, mixed; number with observation (cynomolgus monkeys; 400/300 mg/kg/day M): 2 | Liver: Hypertrophy, hepatocellular, panlobular, mild; number with observation (cynomolgus monkeys; 400/300 mg/kg/day M): 3 | Liver: Hypertrophy, hepatocellular, panlobular, minimal; number with observation (cynomolgus monkeys; 400/300 mg/kg/day M): 0 | Thymus: Depletion lymphoid, generalized, mild; number with observation (cynomolgus monkeys; 400/300 mg/kg/day M): 1 | Thymus: Depletion lymphoid, generalized, moderate; number with observation (cynomolgus monkeys; 400/300 mg/kg/day M): 2 | Thymus: Depletion lymphoid, generalized; number with observation (cynomolgus monkeys; 400/300 mg/kg/day M): 3 | Thymus: Depletion, lymphoid, cortex, mild; number with observation (cynomolgus monkeys; 400/300 mg/kg/day M): 0 | Thymus: Depletion, lymphoid, cortex, minimal; number with observation (cynomolgus monkeys; 400/300 mg/kg/day M): 0 | Thymus: Depletion, lymphoid, cortex, moderate; number with observation (cynomolgus monkeys; 400/300 mg/kg/day M): 0 | mean cumulative body gain (Days 1-14) (cynomolgus monkeys; 400/300 mg/kg/day M): -0.23 kg | Bone marrow, femur: Depletion, mixed; number with observation (cynomolgus monkeys; [4]): 2 | Liver: Hypertrophy, hepatocellular, panlobular; number with observation (cynomolgus monkeys; [4]): 3 | Thymus: Depletion, lymphoid, cortex; number with observation (cynomolgus monkeys; [4]): 0 | NOAEL (cynomolgus monkeys; 14 days): 50 mg/kg/day | highest non-lethal dose (cynomolgus monkeys; cynomolgus monkey, in vivo): 300 mg/kg | lethality ([1]; GLP, 120 mg/kg/day group, within 3 hours of dosing): Lethality was observed in a single animal | incidence of micro-nucleated polychromatic erythrocytes (MPCE) ([1]; non-GLP, 250 mg/kg and less): No significant increase | highest non-lethal dose ([1]; non-GLP, single oral dose, suspension in PBS pH 7.4, ICR mice): 250 mg/kg | IC50 (CYP2C9): < 1.5 µM | IC50 (CYP2C19): < 1.5 µM | lowest dosage that significantly reduces drug self-administration [2]: ≥ 10 mg/kg
